According to patent US10023558B2, “Compounds” (CHIESI FARMACEUTICI S.P.A., priority 2016, dated 2018):
pIC50: −log10 of the molar value.

biological target: T1, human neutrophil elastase (HNE) (Homo sapiens, UniProt P08246); assay: HNE Enzyme Assay (fluorogenic peptide substrate MeOSuc-Ala-Ala-Pro-Val-AMC); type: biochemical; details: human leukocyte elastase 0.00072 U/mL, substrate 100 μM, 25° C., 30 minutes, at least two separate experiments; read-out: HNE inhibition (IC50 values)
T1 construct: purchased Sigma E8140
T1 sequence (P08246 30-247 limits assumed): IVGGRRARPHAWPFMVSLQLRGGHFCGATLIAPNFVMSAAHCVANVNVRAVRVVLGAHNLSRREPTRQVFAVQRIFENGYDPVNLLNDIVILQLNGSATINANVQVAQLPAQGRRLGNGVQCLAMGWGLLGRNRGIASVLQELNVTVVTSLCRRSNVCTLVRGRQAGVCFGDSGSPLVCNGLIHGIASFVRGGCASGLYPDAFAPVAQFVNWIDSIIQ
Procedure, shortened: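 Human leukocyte elastase (0.00072 U/mL) with 100 μM MeOSuc-AAPV-AMC in Tris pH 7.5 buffer with NaCl, CaCl2, Brij-35, 1% DMSO, 30 min at 25° C, stopped with soybean trypsin inhibitor. AMC fluorescence (ex 380/em 460 nm); IC50 from concentration-response as % inhibition of control, at least two experiments.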

Row | Structure (SMILES) | pIC50
1 | Cc1c(-c2ccnn2-c2ccc(C#N)cc2)n(C(=O)N[C@H]2CC[C@@H](C[N+](C)(C)Cc3ccccc3)CC2)c(=O)n1-c1cccc(C(F)(F)F)c1 [Example 54, Benzyl-(cis-4-{[5-[2-(4-cyano-phenyl)-2H-pyrazol-3-yl]-4-methyl-2-oxo-3-(3-trifiuoromethyl-phenyl)-2,3-dihydro-imidazole-1-carbonyl]-amino}-cyclohexylmethyl)-dimethyl-ammonium bromide] | 8.00 to 9.00
2 | CC[N+](C)(C)C[C@H]1CC[C@@H](NC(=O)n2c(-c3ccnn3-c3ccc(C#N)cc3)c(C)n(-c3cccc(C(F)(F)F)c3)c2=O)CC1 [Example 55, (Cis-4-{[5-[2-(4-cyano-phenyl)-2H-pyrazol-3-yl]-4-methyl-2-oxo-3-(3-trifluoromethyl-phenyl)-2,3-dihydro-imidazole-1-carbonyl]-amino}-cyclohexylmethyl)-ethyl-dimethyl-ammonium benzene sulfonate] | 8.00 to 9.00
3 | Cc1c(-c2ccnn2-c2ccc(C#N)cc2)n(C(=O)N[C@H]2C[C@@H]3C[N+](C)(C)C[C@@H]3C2)c(=O)n1-c1cccc(C(F)(F)F)c1 [Example 56, (3aR,5S,6aS)-5-{[5-[2-(4-Cyano-phenyl)-2H-pyrazol-3-yl]-4-methyl-2-oxo-3-(3-trifluoromethyl-phenyl)-2,3-dihydro-imidazole-1-carbonyl]-amino}-2,2-dimethyl-octahydro-cyclopenta[c]pyrrolium benzene sulfonate] | > 9.00
4 | Cc1c(-c2ccnn2-c2ccc(C#N)cc2)n(C(=O)N[C@@H](C)C(=O)NC2CC[N+](C)(C)CC2)c(=O)n1-c1cccc(C(F)(F)F)c1 [Example 57, 4-((S)-2-{[5-[2-(4-Cyano-phenyl)-2H-pyrazol-3-yl]-4-methyl-2-oxo-3-(3-trifluoromethyl-phenyl)-2,3-dihydro-imidazole-1-carbonyl]-amino}-propionylamino)-1,1-dimethyl-piperidinium benzene sulfonate] | > 9.00
5 | Cc1c(-c2ccnn2-c2ccc(C#N)cc2)n(C(=O)N[C@@H](C)c2ccc(C[N+](C)(C)C)cc2)c(=O)n1-c1cccc(C(F)(F)F)c1 [Example 58, [4-((S)-1-{[5-[2-(4-Cyano-phenyl)-2H-pyrazol-3-yl]-4-methyl-2-oxo-3-(3-trifluoromethyl-phenyl)-2,3-dihydro-imidazole-1-carbonyl]-amino}-ethyl)-benzyl]-trimethyl-ammonium benzene sulfonate] | > 9.00
6 | Cc1c(-c2ccnn2-c2ccc(C#N)cc2)n(C(=O)N[C@@H](C)c2nc(C[N+](C)(C)C)no2)c(=O)n1-c1cccc(C(F)(F)F)c1 [Example 60, [5-((S)-1-{[5-[2-(4-Cyano-phenyl)-2H-pyrazol-3-yl]-4-methyl-2-oxo-3-(3-trifluoromethyl-phenyl)-2,3-dihydro-imidazole-1-carbonyl]-amino}-ethyl)-[1,2,4]oxadiazol-3-ylmethyl]-trimethyl-ammonium benzene sulfonate] | > 9.00
7 | Cc1c(-c2ccnn2-c2ccc(C#N)cc2)n(C(=O)NC2CCN(C(=O)C[N+](C)(C)C)CC2)c(=O)n1-c1cccc(C(F)(F)F)c1 [Example 61, [2-(4-{[5-[2-(4-Cyano-phenyl)-2H-pyrazol-3-yl]-4-methyl-2-oxo-3-(3-trifluoromethyl-phenyl)-2,3-dihydro-imidazole-1-carbonyl]-amino}-piperidin-1-yl)-2-oxo-ethyl]-trimethyl-ammonium benzene sulfonate] | > 9.00
8 | Cc1c(-c2ccnn2-c2ccc(C#N)cc2)n(C(=O)N[C@@H](C)C(=O)N(C)CC2CC[N+](C)(C)CC2)c(=O)n1-c1cccc(C(F)(F)F)c1 [Example 62, 4-{[((S)-2-{[5-[2-(4-Cyano-phenyl)-2H-pyrazol-3-yl]-4-methyl-2-oxo-3-(3-trifluoromethyl-phenyl)-2,3-dihydro-imidazole-1-carbonyl]-amino}-propionyl)-methyl-amino]-methyl}-1,1-dimethyl-piperidinium benzene sulfonate] | > 9.00
9 | Cc1c(-c2ccnn2-c2ccc(C#N)cc2)n(C(=O)N[C@@H](C)c2nnc(C[N+](C)(C)C)o2)c(=O)n1-c1cccc(C(F)(F)F)c1 [Example 63, [5-((S)-1-{[5-[2-(4-Cyano-phenyl)-2H-pyrazol-3-yl]-4-methyl-2-oxo-3-(3-trifluoromethyl-phenyl)-2,3-dihydro-imidazole-1-carbonyl]-amino}-ethyl)-[1,3,4]oxadiazol-2-ylmethyl]-trimethyl-ammonium benzene sulfonate] | > 9.00
10 | Cc1c(-c2ccnn2-c2ccc(C#N)cc2)n(C(=O)N[C@@H](C)c2ncc(C[N+](C)(C)C)o2)c(=O)n1-c1cccc(C(F)(F)F)c1 [Example 64, [2-((S)-1-{[5-[2-(4-Cyano-phenyl)-2H-pyrazol-3-yl]-4-methyl-2-oxo-3-(3-trifluoromethyl-phenyl)-2,3-dihydro-imidazole-1-carbonyl]-amino}-ethyl)-oxazol-5-ylmethyl]-trimethyl-ammonium benzene sulfonate] | > 9.00
11 | Cc1c(-c2ccnn2-c2ccc(C#N)cc2)n(C(=O)NC2CCN(C(=O)CC[N+](C)(C)C)CC2)c(=O)n1-c1cccc(C(F)(F)F)c1 [Example 65, [3-(4-{[5-[2-(4-Cyano-phenyl)-2H-pyrazol-3-yl]-4-methyl-2-oxo-3-(3-trifluoromethyl-phenyl)-2,3-dihydro-imidazole-1-carbonyl]-amino}-piperidin-1-yl)-3-oxo-propyl]-trimethyl-ammonium benzene sulfonate] | > 9.00
12 | Cc1c(-c2ccnn2-c2ccc(C#N)cc2)n(C(=O)NC2CCC3(CC2)CC[N+](C)(C)CC3)c(=O)n1-c1cccc(C(F)(F)F)c1 [Example 66, 9-{[5-[2-(4-Cyano-phenyl)-2H-pyrazol-3-yl]-4-methyl-2-oxo-3-(3-trifluoromethyl-phenyl)-2,3-dihydro-imidazole-1-carbonyl]-amino}-3,3-dimethyl-3-azonia-spiro[5.5]undecane benzene sulfonate] | > 9.00
13 | Cc1c(-c2ccnn2-c2ccc(C#N)cc2)n(C(=O)N[C@H]2C[C@@H](C[N+](C)(C)C)C2)c(=O)n1-c1cccc(C(F)(F)F)c1 [Example 67, (Cis-3-{[5-[2-(4-cyano-phenyl)-2H-pyrazol-3-yl]-4-methyl-2-oxo-3-(3-trifluoromethyl-phenyl)-2,3-dihydro-imidazole-1-carbonyl]-amino}-cyclobutylmethyl)-trimethyl-ammonium benzene sulfonate] | > 9.00
14 | Cc1c(-c2ccnn2-c2ccc(C#N)cc2)n(C(=O)N[C@H]2C[C@H](C[N+](C)(C)C)C2)c(=O)n1-c1cccc(C(F)(F)F)c1 [Example 68, (Trans-3-{[5-[2-(4-cyano-phenyl)-2H-pyrazol-3-yl]-4-methyl-2-oxo-3-(3-trifluoromethyl-phenyl)-2,3-dihydro-imidazole-1-carbonyl]-amino}-cyclobutylmethyl)-trimethyl-ammonium benzene sulfonate] | > 9.00
15 | Cc1c(-c2ccnn2-c2ccc(C#N)cc2)n(C(=O)N[C@@H](C)C(=O)N2CCC([N+](C)(C)C)CC2)c(=O)n1-c1cccc(C(F)(F)F)c1 [Example 69, [1-((S)-2-{[5-[2-(4-Cyano-phenyl)-2H-pyrazol-3-yl]-4-methyl-2-oxo-3-(3-trifluoromethyl-phenyl)-2,3-dihydro-imidazole-1-carbonyl]-amino}-propionyl)-piperidin-4-yl]-trimethyl-ammonium benzene sulfonate] | > 9.00
16 | Cc1c(-c2ccnn2-c2ccc(C#N)cc2)n(C(=O)N[C@@H](C)C(=O)N2CCC([N+](C)(C)Cc3ccccc3)CC2)c(=O)n1-c1cccc(C(F)(F)F)c1 [Example 70, Benzyl-[1-((S)-2-{[5-[2-(4-cyano-phenyl)-2H-pyrazol-3-yl]-4-methyl-2-oxo-3-(3-trifluoromethyl-phenyl)-2,3-dihydro-imidazole-1-carbonyl]-amino}-propionyl)-piperidin-4-yl]-dimethyl-ammonium bromide] | > 9.00
17 | Cc1c(-c2ccnn2-c2ccc(C#N)cc2)n(C(=O)N[C@@H](C)C(=O)N(C)CC[N+](C)(C)C)c(=O)n1-c1cccc(C(F)(F)F)c1 [Example 71, {2-[((S)-2-{[5-[2-(4-Cyano-phenyl)-2H-pyrazol-3-yl]-4-methyl-2-oxo-3-(3-trifluoromethyl-phenyl)-2,3-dihydro-imidazole-1-carbonyl]-amino}-propionyl)-methyl-amino]-ethyl}-trimethyl-ammonium benzene sulfonate] | > 9.00
18 | Cc1c(-c2ccnn2-c2ccc(C#N)cc2)n(C(=O)N[C@H]2CC[C@H]([N+](C)(C)Cc3ncon3)CC2)c(=O)n1-c1cccc(C(F)(F)F)c1 [Example 72, (Trans-4-{[5-[2-(4-cyano-phenyl)-2H-pyrazol-3-yl]-4-methyl-2-oxo-3-(3-trifluoromethyl-phenyl)-2,3-dihydro-imidazole-1-carbonyl]-amino}-cyclohexyl)-dimethyl-[1,2,4]oxadiazol-3-ylmethyl-amnionium chloride] | > 9.00
19 | Cc1c(-c2ccnn2-c2ccc(C#N)cc2)n(C(=O)N[C@H](c2ncc(C[N+](C)(C)C)o2)C(C)C)c(=O)n1-c1cccc(C(F)(F)F)c1 [Example 73, [2-((S)-1-{[5-[2-(4-Cyano-phenyl)-2H-pyrazol-3-yl]-4-methyl-2-oxo-3-(3-trifluoromethyl-phenyl)-2,3-dihydro-imidazole-1-carbonyl]-amino}-2-methyl-propyl)-oxazol-5-ylmethyl]-trimethyl-ammonium benzene sulfonate] | > 9.00
